{"source": "patent US8293488B2", "about": "“Method for screening neurogenic agents” (Neuralstem, Inc., priority 2002, dated 2012)", "format_in_all_cases": "cell-based", "key": {"[1]": {"system": "human hippocampal multipotent stem/progenitor cells", "assay": "Neurogenesis: ratio of TuJ1 stained neurons to total nuclei after 7 days", "conditions": "20 ng/ml, differentiation media without mitogen, manual cell counting, controls 48.5+6.3%", "procedure": "FIG. 3B. LIF effects on hippocampal cell proliferation and neurogenesis by manual cell counting. Hippocampal progenitor cells were treated for seven days with differentiation media (without mitogen) in the presence or absence of 20 ng/ml LIF. Three fields were analyzed per well for total number of cells (DAPI positive nuclei) and for total number of neurons (TUJI positive cells). Bars represent the Mean+SD from 4 wells per treatment. The percentage of neurons calculated for each treatment are as follows: 48.5+6.3% for controls and 53.6+1.15 for LIF. The non-TUJ1 positive cells are mainly astrocytic (GFAP+).\nFIG. 5. Example of neurogenesis profile of compounds selected from primary screening. After 7 days of compound treatment, the ratio of neuron number (TuJ1 stained) to the total nuclei number (Hoechst stained) was determined. Shown are the relative ratio of neuron:total cells for each compound over the vehicle control in percentage. […]\n(8) The total cell number in each well was quantified by staining the cultures with a nuclear dye such as DAPI or Hoechst according to standard procedures.\n(§1) (9) As a preliminary detection of positive activities, the overall immunostaining intensity in each well was read by a fluorescence plate reader. For the positive hits, more quantitative analysis was carried out by automated morphometric counting of individual cells."}, "[2]": {"system": "human hippocampal progenitor cells", "assay": "In vitro neurogenesis assay (primary screen, positive control selection)", "conditions": "for effective in the neurogenesis assay: growth factors 20 ng/ml, 7 days", "procedure": "FIG. 3A. Influence of known growth factors on proliferation and neurogenesis relative to control. Hippocampal progenitor cells were treated for seven days with differentiation media (without mitogen) in the presence or absence of 20 ng/ml of growth factor dosed every other day. Plates were treated with Alamar Blue as described in Methods, then fixed and stained with antibody (TuJ1) against type III beta-tubulin (neuronal marker). The 96-well plate was read in a fluorescent plate reader. Bars represent the Mean+SD from 4 wells per treatment.\n(§2) (1) Undifferentiated human neural stem/progenitor cells were harvested by enzyme treatment.\n(§3) (2) The collected cells were seeded at 40,000 cells per well of 96-well plates pre-coated with extracellular matrix proteins (e.g., Biocoat PDL, Fisher). The seeding media is a standard serum-free, growth factor-free, basal media that supports healthy neuronal/glial survival, such as N2 without phenol red.\n(§4) (3) Test agents at appropriate concentrations were added to each well on Day 0.\n(4) The assay plates were incubated for 7 days, with 50% media change at every other day. On Day 2, 4, and 6 of post-plating, additional increment of the screening agents at appropriate concentrations were added to each well.\n(7) After the alamar blue assay, the cells were fixed and stained with antibodies against neuron-specific antigens according to standard procedures. Typical antigens effective were Type III-beta tubulin and MAP2c.\nas §1\nThus, the assay can discriminate test agents for selectively having a neurogenic activity. The positive control utilized is leukemia inhibitory factor (LIF), a cytokine growth factor, at 20 ng/ml. The selection of LIF as the positive control is based on its properties to increase by 2-3 fold the number of neurons and glia. This effect validates both the neural stem cell system, in which, should a compound be effective in neurogenesis, the cells respond appropriately by enhanced differentiation and/or mitosis, and the assay method in which such cellular responses can be measured reproducibly and quantifiably.\n5,628 synthetic compounds of the type Fused Imidazoles, Aminopyrimidines, Nicotinamides, Aminomethyl Phenoxypiperidines and Aryloxypiperidines are evaluated for their effect on neurogenesis according the assay method described above. […] Those were re-analyzed by quantitative neuron counting. […] The significance level was empirically set at an activity above 30% change over the vehicle control for proliferation and above 10% change for neurogenesis."}, "[3]": {"system": "human hippocampal multipotent stem/progenitor cells", "assay": "Proliferation by Alamar Blue staining of live cells after 7 days of compound treatment", "conditions": "7 days compound treatment, relative to vehicle control", "procedure": "FIG. 4. Examples of proliferation profile of compounds selected from primary screening. Proliferation was measured after compound treatment for 7 days by Alamar Blue staining of live cells per well. Shown are relative values over the vehicle control.\nas §2, §3, §4\n(4) The assay plates were incubated for 7 days, with 50% media change at every other day. On Day 2, 4, and 6 of post-plating, additional increment of the screening agents at appropriate concentrations were added to each well. […]\n(6) The fluorescence of the oxidized dye in each well was read by a fluorescent plate reader with the following settings:\nExcitation 530 nm, emission 590 nm, cutoff 570 nm The fluorescence level is proportional to the number of respiring cells in the culture and is a measure of a proliferative activity of a test agent (FIG. 2)."}, "[4]": {"system": "differentiating human hippocampal progenitor cells", "assay": "Dose-response of neuron number (TuJ1 positive cells, automated cell counter)", "conditions": "7 days, 100 picaM to 100 microM", "procedure": "FIG. 6. Examples of neurogenesis profile of compounds selected from primary screening. After 7 days of compound treatment, the cells were stained with TuJ1 for neurons. The absolute number of TuJ1+ neurons per area was quantified and expressed as a relative value to the vehicle treated control.\nFIG. 7. Dose-dependent increase in neuron number. Differentiating human hippocampal progenitor cells were treated for 7 days with varying concentrations of “primary hits”. Subsequently, the cells were fixed, stained with TuJ1, and positive cells were quantified by an automated cell counter. Shown are the number of neurons after each treatment normalized against the vehicle control (0 microM=1.0).\n(§5) Linearity of dose-response and in vitro neurotoxicity are used to further filter down desired compounds from the primary screen. The dose-response curve measures neurogenesis over a concentration range of 100 picaM to 100 microM. The rationale for this is to eliminate early on those compounds with pronounced toxicity and those without a dose-dependent effect on neurogenesis. […] Table II contains the summary of EC50 of each compound tested."}, "[5]": {"system": "differentiating human hippocampal progenitor cells", "assay": "In vitro neurotoxicity from dose-response curves", "conditions": "dose-response up to 100 microM", "text": "as §5"}}, "data": [{"molecule": "leukemia inhibitory factor [LIF]", "values": [{"measurement": "percentage of neurons (TUJ1 positive cells of DAPI positive nuclei)", "setting": "[1]", "value": "53.6+1.15"}, {"measurement": "increase in the number of neurons and glia", "setting": "[2]; 20 ng/ml", "value": "2-3 fold"}, {"measurement": "effective in the neurogenesis assay", "setting": "[2]", "value": "effective"}]}, {"molecule": "COc1ccc(C2CNC(=O)C2)cc1OC1CCCC1", "note": "(stereo not shown) [Rolipram, rolipram, reference compound]", "values": [{"measurement": "effective in the neurogenesis assay", "setting": "[2]", "value": "effective"}]}, {"molecule": "NC(=O)c1cnc(NCc2ccc(Cl)cc2)nc1NCC1CCCCC1", "note": "[NSI-144]", "values": [{"measurement": "Proliferation (% of Control)", "setting": "[3]", "value": "149 ± 15 % of Control"}, {"measurement": "EC50", "setting": "[4]", "value": 1, "unit": "nM"}, {"measurement": "Other Characterization of Toxicity", "setting": "[5]", "value": "No Toxicity"}]}, {"molecule": "CCCCNc1c(C2CCN(C(=O)CN(CC(C)C)S(C)(=O)=O)CC2)nc2cnccn12", "note": "[NSI-106]", "values": [{"measurement": "Proliferation (% of Control)", "setting": "[3]", "value": "211 ± 48 % of Control"}, {"measurement": "EC50", "setting": "[4]", "value": 0.1, "unit": "nM"}, {"measurement": "Other Characterization of Toxicity", "setting": "[5]", "value": "No Toxicity"}]}, {"molecule": "brain-derived neurotrophic factor (protein, UniProt P23560 19-247, looked up) Neurotrophic factor BDNF …: APMKEANIRGQGGLAYPGVRTHGTLESVNGPKAGSRGLTSLADTFEHVIEELLDEDQKVRPNEENNKDADLYTSRVMLSSQVPLEPPLLFLLEEYKNYLDAANMSMRVRRHSDPARRGELSVCDSISEWVTAADKKTAVDMSGGTVTVLEKVPVSKGQLKQYFYETKCNPMGYTKEGCRGIDKRHWNSQCRTTQSYVRALTMDSKKRIGWRFIRIDTSCVCTLTIKRGR", "values": [{"measurement": "effective in the neurogenesis assay", "setting": "[2]", "value": "Only one (leukemia inhibitory factor) was effective"}]}, {"molecule": "glia-derived neurotrophic factor (protein, UniProt P39905 78-211, looked up) Glial cell line-derived …: SPDKQMAVLPRRERNRQAAAANPENSRGKGRRGQRGKNRGCVLTAIHLNVTDLGLGYETKEELIFRYCSGSCDAAETTYDKILKNLSRNRRLVSDKVGQACCRPIAFDDDLSFLDDNLVYHILRKHSAKRCGCI", "values": [{"measurement": "effective in the neurogenesis assay", "setting": "[2]", "value": "Only one (leukemia inhibitory factor) was effective"}]}, {"molecule": "neurotrophic factor-3 (protein, UniProt P20783 139-257, looked up) Neurotrophin-3: YAEHKSHRGEYSVCDSESLWVTDKSSAIDIRGHQVTVLGEIKTGNSPVKQYFYETRCKEARPVKNGCRGIDDKHWNSQCKTSQTYVRALTSENNKLVGWRWIRIDTSCVCALSRKIGRT", "values": [{"measurement": "effective in the neurogenesis assay", "setting": "[2]", "value": "Only one (leukemia inhibitory factor) was effective"}]}]}
